According to PubChem BioAssay AID2060506 (Molecular Pharmacology Branch, DTP, NCI, 2025):

Test system: 598228-144-R-J1-PDC complex spheroid viability
Assay: Anticancer human tumor 598228-144-R-J1-PDC patient-derived serous endometrial adenocarcinoma cell line growth inhibition [GQUAD]
Details: for IC50: curve of first compound; for viability, T/C: stronger effect = lower value
Outline: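 Tumor cells were grown as complex spheroids with HUVEC endothelial cells and mesenchymal stem cells as stroma. G-quadruplex stabilizers were combined with targeted agents over half-log dilutions from near the clinical Cmax, or from 10 microM.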

[1] = second compound 0.0316 µM, first compound 0.0316 µM
[2] = second compound 0.0316 µM, first compound 0.1 µM
[3] = second compound 0.0316 µM, first compound 0.316 µM
[4] = second compound 0.0316 µM, first compound 1 µM
[5] = second compound 0.0316 µM, first compound 3.16 µM
[6] = second compound 0.0316 µM, first compound 10 µM
[7] = second compound 0.1 µM, first compound 0.0316 µM
[8] = second compound 0.1 µM, first compound 0.1 µM
[9] = second compound 0.1 µM, first compound 0.316 µM
[10] = second compound 0.1 µM, first compound 1 µM
[11] = second compound 0.1 µM, first compound 3.16 µM
[12] = second compound 0.1 µM, first compound 10 µM
[13] = second compound 0.316 µM, first compound 0.0316 µM
[14] = second compound 0.316 µM, first compound 0.1 µM
[15] = second compound 0.316 µM, first compound 0.316 µM
[16] = second compound 0.316 µM, first compound 1 µM
[17] = second compound 0.316 µM, first compound 3.16 µM
[18] = second compound 0.316 µM, first compound 10 µM
[19] = second compound 1 µM, first compound 0.0316 µM
[20] = second compound 1 µM, first compound 0.1 µM
[21] = second compound 1 µM, first compound 0.316 µM
[22] = second compound 1 µM, first compound 1 µM
[23] = second compound 1 µM, first compound 3.16 µM
[24] = second compound 1 µM, first compound 10 µM
[25] = second compound 3.16 µM, first compound 0.0316 µM
[26] = second compound 3.16 µM, first compound 0.1 µM
[27] = second compound 3.16 µM, first compound 0.316 µM
[28] = second compound 3.16 µM, first compound 1 µM
[29] = second compound 3.16 µM, first compound 3.16 µM
[30] = second compound 3.16 µM, first compound 10 µM
[31] = second compound 10 µM, first compound 0.0316 µM
[32] = second compound 10 µM, first compound 0.1 µM
[33] = second compound 10 µM, first compound 0.316 µM
[34] = second compound 10 µM, first compound 1 µM
[35] = second compound 10 µM, first compound 3.16 µM
[36] = second compound 10 µM, first compound 10 µM
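Also: spheroids exposed to the agents for one week before reading.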
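For viability, T/C in this document: percent of vehicle DMSO control viability so 100% = untreated growth.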

C=CCn1c(=O)c2cnc(Nc3ccc(N4CCN(C)CC4)cc3)nc2n1-c1cccc(C(C)(C)O)n1 + Cc1cnc(CNC(=O)c2c(=O)c3ccc(N4CCCN(C)CC4)nc3n3c2sc2ccccc23)cn1
IC50 (second compound 0.0316 µM): 10000 nM
IC50 (second compound 0.1 µM): 445 nM
IC50 (second compound 0.316 µM): 1220 nM
IC50 (second compound 1 µM): 655 nM
IC50 (second compound 3.16 µM): < 31.6 nM
IC50 (second compound 10 µM): < 31.6 nM
viability, T/C [1]: 76%
viability, T/C [2]: 95%
viability, T/C [3]: 61.1%
viability, T/C [4]: 44.1%
viability, T/C [5]: 45.2%
viability, T/C [6]: 61.6%
viability, T/C [7]: 82.7%
viability, T/C [8]: 74.3%
viability, T/C [9]: 51.7%
viability, T/C [10]: 45.5%
viability, T/C [11]: 43.7%
viability, T/C [12]: 38%
viability, T/C [13]: 71.4%
viability, T/C [14]: 74.5%
viability, T/C [15]: 65.9%
viability, T/C [16]: 52.5%
viability, T/C [17]: 40.6%
viability, T/C [18]: 42.6%
viability, T/C [19]: 86.5%
viability, T/C [20]: 55.4%
viability, T/C [21]: 55.3%
viability, T/C [22]: 60.3%
viability, T/C [23]: 41.6%
viability, T/C [24]: 39.8%
viability, T/C [25]: 50.8%
viability, T/C [26]: 47.6%
viability, T/C [27]: 42.3%
viability, T/C [28]: 41%
viability, T/C [29]: 52.5%
viability, T/C [30]: 41.1%
viability, T/C [31]: 24.5%
viability, T/C [32]: 42.1%
viability, T/C [33]: 19.2%
viability, T/C [34]: 0.53%
viability, T/C [35]: 0.58%
viability, T/C [36]: 21.5%

O=C(c1cc(Cc2n[nH]c(=O)c3ccccc23)ccc1F)N1CCN(C(=O)C2CC2)CC1 + CN(C)c1ccc(Nc2c3ccc(NC(=O)CCN4CCCC4)cc3nc3cc(NC(=O)CCN4CCCC4)ccc23)cc1
IC50 (second compound 0.0316 µM): > 10000 nM
IC50 (second compound 0.1 µM): > 10000 nM
IC50 (second compound 0.316 µM): > 10000 nM
IC50 (second compound 1 µM): > 10000 nM
IC50 (second compound 3.16 µM): > 10000 nM
IC50 (second compound 10 µM): > 10000 nM
viability, T/C [1]: 84.9%
viability, T/C [2]: 92.6%
viability, T/C [3]: 79.7%
viability, T/C [4]: 92.9%
viability, T/C [5]: 95%
viability, T/C [6]: 75.8%
viability, T/C [7]: 110%
viability, T/C [8]: 101%
viability, T/C [9]: 91%
viability, T/C [10]: 84.4%
viability, T/C [11]: 87.2%
viability, T/C [12]: 75.1%
viability, T/C [13]: 98%
viability, T/C [14]: 85.3%
viability, T/C [15]: 96.6%
viability, T/C [16]: 91.1%
viability, T/C [17]: 93.9%
viability, T/C [18]: 65.9%
viability, T/C [19]: 82.5%
viability, T/C [20]: 93.9%
viability, T/C [21]: 103%
viability, T/C [22]: 87.5%
viability, T/C [23]: 87.4%
viability, T/C [24]: 54.1%
viability, T/C [25]: 98.8%
viability, T/C [26]: 91.8%
viability, T/C [27]: 92.8%
viability, T/C [28]: 88.3%
viability, T/C [29]: 92.9%
viability, T/C [30]: 68.3%
viability, T/C [31]: 76.4%
viability, T/C [32]: 89.3%
viability, T/C [33]: 91.9%
viability, T/C [34]: 73.8%
viability, T/C [35]: 89.7%
viability, T/C [36]: 50.3%

CC1COCCN1c1cc(C2(O)CC3CCC(C2)O3)c2cnn(-c3ccn[nH]3)c2n1 (stereo unspecified) + CN(C)c1ccc(Nc2c3ccc(NC(=O)CCN4CCCC4)cc3nc3cc(NC(=O)CCN4CCCC4)ccc23)cc1
IC50 (second compound 0.0316 µM): 72.8 nM
IC50 (second compound 0.1 µM): 90 nM
IC50 (second compound 0.316 µM): 130 nM
IC50 (second compound 1 µM): 162 nM
IC50 (second compound 3.16 µM): 146 nM
IC50 (second compound 10 µM): 46 nM
viability, T/C [1]: 58.7%
viability, T/C [2]: 45.8%
viability, T/C [3]: 34.9%
viability, T/C [4]: 32.9%
viability, T/C [5]: 25.2%
viability, T/C [6]: 13.9%
viability, T/C [7]: 60.5%
viability, T/C [8]: 49.3%
viability, T/C [9]: 34.3%
viability, T/C [10]: 32.7%
viability, T/C [11]: 28.2%
viability, T/C [12]: 12.7%
viability, T/C [13]: 74.8%
viability, T/C [14]: 49%
viability, T/C [15]: 36.5%
viability, T/C [16]: 37.1%
viability, T/C [17]: 28.6%
viability, T/C [18]: 15.4%
viability, T/C [19]: 68.5%
viability, T/C [20]: 44.6%
viability, T/C [21]: 44.3%
viability, T/C [22]: 35.6%
viability, T/C [23]: 36.1%
viability, T/C [24]: 12.4%
viability, T/C [25]: 61.8%
viability, T/C [26]: 55.9%
viability, T/C [27]: 35.1%
viability, T/C [28]: 39.6%
viability, T/C [29]: 25.6%
viability, T/C [30]: 9.44%
viability, T/C [31]: 58.5%
viability, T/C [32]: 34.5%
viability, T/C [33]: 27.6%
viability, T/C [34]: 23.7%
viability, T/C [35]: 26.6%
viability, T/C [36]: 3.21%
